Here are results for three molecules from patent publication US20260234295A1, “ULTRALOW MOLECULAR WEIGHT HEPARIN” (The University of North Carolina at Chapel Hill, priority 2022, published 2026).

Molecules are shown by their SMILES. Where “and” joins values, the source holds several entries; their conditions need not be identical. Equal values may be shown once.

The test system of one data set is T1, Human FXa (Homo sapiens).
T1 construct: Human FXa (Enzyme Research Laboratories, South Bend, Indiana, United States of America); purchased Enzyme Research Laboratories
Description: Anti-FXa activity, chromogenic substrate S-2765 with antithrombin. The class given is biochemical. The note with it: for anti-FXa activity after incubation with heparanase: after heparanase digestion, digested byproduct; for IC50: human FXa, antithrombin, S-2765, read-out: anti-FXa activity, calculated IC50 (converted). As for the experimental part: Human FXa (Enzyme Research Laboratories, South Bend, Indiana, United States of America) was diluted in phosphate buffered saline (PBS) to 50 U/mL. Antithrombin was diluted to 0.03 mg/mL in PBS with 1 mg/mL of bovine serum albumin (BSA). The chromogenic substrate, S-2765 (Diapharma, Westchester, Ohio, United States of America) was diluted to 1 mg/mL in water. Heparin oligosaccharides were dissolved in PBS at various concentrations (7 to 3600 ng/mL). A reaction mixture including 60 μL of antithrombin and 24 μL of a solution containing a heparin oligosaccharide was incubated at room temperature for 3 min. FXa (100 μL) was then added, which was followed after a 2 min incubation at room temperature by the addition of 30 μL of chromogenic substrate, S-2765. The absorbance of the mixture was measured at 405 nm for 5 min and plotted against reaction time. The initial reaction rate as a function of oligosaccharide concentration was used to calculate IC50.

The target of another data set is T2, Recombinant heparanase (Homo sapiens, UniProt Q9Y251).
T2 construct: made in house; host or cells: insect cells (baculovirus expression system)
T2 sequence (Q9Y251 158-543 limits assumed): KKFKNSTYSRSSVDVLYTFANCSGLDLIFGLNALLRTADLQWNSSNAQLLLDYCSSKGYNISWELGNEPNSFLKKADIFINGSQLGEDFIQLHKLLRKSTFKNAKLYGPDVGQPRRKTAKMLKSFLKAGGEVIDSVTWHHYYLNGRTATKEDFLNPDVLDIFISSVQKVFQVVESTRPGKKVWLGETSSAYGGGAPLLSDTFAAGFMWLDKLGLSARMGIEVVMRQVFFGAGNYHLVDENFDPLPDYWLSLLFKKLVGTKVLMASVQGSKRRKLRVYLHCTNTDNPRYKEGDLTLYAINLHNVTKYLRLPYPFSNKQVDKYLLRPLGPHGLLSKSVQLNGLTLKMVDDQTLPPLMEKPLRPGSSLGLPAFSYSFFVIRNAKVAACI
T2 sequence (Q9Y251 36-109 limits assumed): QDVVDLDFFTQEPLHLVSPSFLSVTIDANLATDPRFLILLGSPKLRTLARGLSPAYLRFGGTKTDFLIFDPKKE
The data set can be described thus: Incubation of heparin oligosaccharides with recombinant heparanase, HPLC and LC-MS analysis. Type of data set: in vitro ADME. The note with it: overnight incubation with heparanase, 37° C., pH 6.0. As for the experimental part: Recombinant heparanase was expressed in insect cells using the baculovirus expression system and purified by a heparin-Sepharose column, as previously described (40). Heparin oligosaccharides, HS 6-mer (20 μg) or HR 7-mer (20 μg), were incubated overnight at 37° C. in 250 μL of MES (50 mM, pH 6.0) in the presence of heparanase (2 μg for 1× heparanase digestion, or 20 μg for 10× heparanase digestion).
High performance liquid chromatography (HPLC) analysis was conducted with a strong anion exchange column (Propac™ PA1 column, 10 μm, 9 mm×250 mm, Thermo Fisher, Waltham, MA) using a Shimadzu Prominence UFLC20A system (Shimadzu Corporation, Columbia, MD) with a UV detector set at 310 nm. A linear gradient was used for analytical purposes and included a solvent A: 20 mM NaAcO (pH 5.0); and solvent B: 2 M NaCl with 20 mM NaAcO (pH 5.0): 0-3 min: 0-80% B, 3.1-23 min: 80-100% B at a flow rate of 2 mL/min. A total of 5-10 μg of oligosaccharides was injected per run.
LC-MS/MS analysis of heparanse digested oligosaccharides was implemented on a Vanquish Flex UHPLC system (Thermo Fisher, Waltham, MA) coupled with a TSQ Fortis triple-quadrupole mass spectrometer. The ACQUITY Glycan BEH Amide column ([…], 2.1×150 mm; Waters) was used at 60° C. The mobile phase A was 50 mM ammonium formate in water (pH 4.4) and mobile phase B was acetonitrile. […]

The subject of data set [1] is non-occlusive venous thrombosis. Description: Murine model of non-occlusive venous thrombosis (electrolytic injury of the inferior vena cava). The class given is in vivo, C57BL/6 mice. As for the experimental part: Heparin-based drug efficacy was evaluated in a preclinical mouse model of non-occlusive venous thrombosis (46). HR 7-mer was administered subcutaneously (12 μg/g, n=5) to male C57BL/6 mice (8-12 weeks of age) 1 hour prior to electrolytic injury and 24 hours after injury. Enoxaparin was administered subcutaneously (4 μg/g, n=5) 4 hours prior and 24 hours after electrolytic injury as a clinically relevant reference and an additional control group enrolled with saline vehicle administered subcutaneously (n=6). […] Venous side branches were ligated or cauterized, while posterior branches were left patent. A 25-gauge stainless steel needle, attached to a silver-coated copper wire was inserted into the exposed caudal vena cava and positioned against the anterior wall (anode). A second wire was implanted subcutaneously to complete the circuit (cathode) and a 250 μAmps current applied for 15 min. Subsequently, the needle was removed and a cotton swab held in gentle contact with the puncture site to prevent bleeding. The vena cava and associated thrombus, immediately below the renal veins to just above the bifurcation, was excised 48 hours after injury for determination of wet thrombus weight.

The next data set has as its target T3, bovine FXa.
T3 construct: purchased BioMedica Diagnostics
Description: ACTICHROME heparin activity assay, FXa inhibition with human antithrombin. Type of data set: biochemical. The note with it: ACTICHROME kit, read-out: FXa activity, calculated 50% inhibitory concentration (IC50) (converted). On the procedure:
Data shown as mean standard deviation. Briefly, varying concentrations of HR 7-mer, enoxaparin, and fondaparinux were prepared in phosphate-buffered saline (PBS). A total of 5 microliters (μL) of each sample was added to each well, followed by the addition of 40 μL of human antithrombin for 2 minutes (min) at 37 degrees Celsius (° C.). A total of 40 μL of bovine FXa stock solution was then added and incubated for 1 min at 37° C., followed by the addition of 40 μL of chromogenic substrate sold under the tradename SPECTROZYME® FXa (BioMedica Diagnostics, Windsor, Canada). After a 5 min incubation period at 37° C., the reaction was terminated by the addition of 40 μL of glacial acetic acid. Absorbance was measured at 405 nanometers (nm) and results presented as percent inhibition of FXa activity.

The next data set has as its system tail vein bleeding. Description: Tail vein transection bleeding time. The class given is in vivo, C57BL/6 mice. As for the experimental part: The effect of test drug on bleeding time was assessed in a murine tail vein transection model (46). Sterile saline (n=5), HR 7-mer (12 μg/g, n=5) or enoxaparin (4 μg/g, n=7) was administered subcutaneously. Mice were anesthetized with ketamine and xylazine by intraperitoneal injection and placed on a warming mat at 37° C. Either 1 hour or 4 hours after administration of HR 7-mer or enoxaparin, respectively, the lateral tail vein was transected with a number 11 scalpel blade at a tail width of 2.3 mm and immediately submerged in PBS at 37° C. The bleeding time was determined at that instant when bleeding had ceased for 30 seconds. Animals were excluded if arterial bleeding was present.

T1 sequence (P01008 33-464): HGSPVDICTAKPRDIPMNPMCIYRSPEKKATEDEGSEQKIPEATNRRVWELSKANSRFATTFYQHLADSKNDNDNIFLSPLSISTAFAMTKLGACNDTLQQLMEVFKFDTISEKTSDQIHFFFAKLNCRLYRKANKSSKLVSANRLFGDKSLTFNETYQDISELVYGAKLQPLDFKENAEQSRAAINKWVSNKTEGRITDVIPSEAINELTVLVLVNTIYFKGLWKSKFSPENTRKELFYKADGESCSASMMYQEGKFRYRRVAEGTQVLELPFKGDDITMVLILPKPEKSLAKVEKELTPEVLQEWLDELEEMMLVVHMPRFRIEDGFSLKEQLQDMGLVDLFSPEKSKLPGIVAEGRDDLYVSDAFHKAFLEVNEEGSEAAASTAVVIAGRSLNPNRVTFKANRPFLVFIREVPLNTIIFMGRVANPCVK
T3 sequence (P01008 33-464): as above

With `O=C(O)C1OC(Oc2ccc([N+](=O)[O-])cc2)C(O)C(O)C1OC1OC(COS(=O)(=O)O)C(OC2OC(C(=O)O)C(OC3OC(COS(=O)(=O)O)C(OC4OC(C(=O)O)C(OC5OC(COS(=O)(=O)O)C(O)C(O)C5NS(=O)(=O)O)C(O)C4OS(=O)(=O)O)C(OS(=O)(=O)O)C3NS(=O)(=O)O)C(O)C2OS(=O)(=O)O)C(O)C1NS(=O)(=O)O` (stereo not drawn) [Compound 6-mer-D], in the data set on Human FXa (Homo sapiens), the “anti-FXa activity after incubation with heparanase” value is “preservation of anti-FXa activity” and the IC50 is 193 nM.

Consider `O=C(O)C1OC(OC2C(COS(=O)(=O)O)OC(OC3C(C(=O)O)OC(OC4C(COS(=O)(=O)O)OC(OC5C(C(=O)O)OC(Oc6ccc([N+](=O)[O-])cc6)C(O)C5O)C(NS(=O)(=O)O)C4O)C(OS(=O)(=O)O)C3O)C(NS(=O)(=O)O)C2OS(=O)(=O)O)C(O)C(O)C1OC1OC(COS(=O)(=O)O)C(O)C(O)C1NS(=O)(=O)O` (stereo not drawn) [HS 6-mer, reference compound], for which, in the data set with Human FXa (Homo sapiens), the “anti-FXa activity after incubation with heparanase” value is given as “completely lost”; the IC50 is 21.2 nM and 21 nM. Also, the “susceptibility to heparanase mediated degradation (HPLC, LC-MS)” value at Recombinant heparanase is “cleavage of the -[GlcA-GlcNS3S6S]- disaccharide to afford a tetrasaccharide (4-mer-D)”.

Take `O=C(O)C1OC(OC2C(COS(=O)(=O)O)OC(OC3C(C(=O)O)OC(OC4C(COS(=O)(=O)O)OC(OC5C(C(=O)O)OC(OC6C(COS(=O)(=O)O)OC(OC7C(C(=O)O)OC(Oc8ccc([N+](=O)[O-])cc8)C(O)C7O)C(NS(=O)(=O)O)C6O)C(OS(=O)(=O)O)C5O)C(NS(=O)(=O)O)C4OS(=O)(=O)O)C(OS(=O)(=O)O)C3O)C(NS(=O)(=O)O)C2O)C(O)C(O)C1O` (stereo not drawn) [HR 7-mer]: in data set [1] (48 hours after injury, HR 7-mer 12 μg/g SC 1 hour prior and 24 hours after, enoxaparin 4 μg/g SC 4 hours prior and 24 hours after), the “reduction in thrombus formation as compared to saline vehicle” value is recorded as 40.3±3.9%. The “Avg. IVC weight” value in data set [1] (wet thrombus weight 48 hours after injury, enoxaparin 4 μg/g, 4 hr pre, SC, HR 7-mer 12 μg/g, 1 hr pre, SC) is listed as 18.8 ± 1.2 mg. Moreover, the IC50 at bovine FXa was 3870 nM; at Human FXa (Homo sapiens) it was 95.7 nM and 96 nM. The same molecule returned a bleeding time in the data set with tail vein bleeding (enoxaparin 4 μg/g SC, 4 hours, HR 7-mer 12 μg/g SC, 1 hour, saline vehicle 81±3 sec) of 143 ± 18 s. Further, the “Avg. bleeding time” value in the data set on tail vein bleeding (enoxaparin 4 μg/g, 4 hr pre, SC, HR 7-mer 12 μg/g, 1 hr pre) was determined as 143 ± 18 s. Further, at Recombinant heparanase, the “susceptibility to heparanase mediated degradation (HPLC, LC-MS)” value is listed as “loss of GlcA”.
